Test results reported in patent US20250136579A1, “SALTS AND FREE BASES OF BIFUNCTIONAL COMPOUND AND POLYMORPH FORMS THEREOF” (NURIX THERAPEUTICS, INC., priority 2023, published 2025).
Values joined by “and” are separate entries in the source; they are usually repeats but may differ in a detail not shown here. Equal values may be shown once. “Also recorded” adds a separate entry of the source.

Key:
Type in all cases: physicochemical
[1] = heat stress on a TGA, recovered material analyzed by XRPD; settings: held ~1 minute; for Post-XRPD (150° C.): heated on TGA to 150° C.; for Post-XRPD (100° C.): heated on TGA to 100° C.
Method: Samples of each form were heat stressed on a TGA. Samples were heated to the specified temperature and held at that temperature for approximately 1 minute. The material was then recovered from the TGA and analyzed by XRPD.

[2] = estimated solubility by adding test solvent in aliquots to weighed solid, visual inspection
Method: Solubilities of the compound of Formula (I), free base, in a few solvents were estimated. The experiments were carried out by adding the test solvent in aliquots to weighed portions of solid. Whether dissolution had occurred was judged by visual inspection after addition of each solvent aliquot. Solubility numbers were calculated by dividing the weight of the sample by total amount of solvent used to dissolve the sample. The actual solubilities may be greater than the numbers calculated because of the use of solvent aliquots that were too large or because of slow dissolution rates. […] The solubility number is expressed as “greater than or equal to” if dissolution occurred on addition of the first solvent aliquot.
Solubilities of Fumarate Salt Form A are shown in Tables 8 and 9, in selected solvents and aqueous binary mixtures.
Solubilities of the compound of Formula (I), Fumarate Salt Form A, are shown in Tables 15 and 16, in selected solvents and aqueous binary mixtures.

[3] = water solubility, visual solubility estimation using pipet method; settings: thermodynamic from solid
[4] = dynamic vapor sorption (DVS) analysis, TA Instruments Q5000, 5 to 95% RH
Method: For Fumarate Salt Form A, Dynamic vapor sorption (DVS) analysis was carried out using a TA Instruments Q5000 Dynamic Vapor Sorption analyser. The instrument was calibrated with standard weights and a sodium bromide standard for humidity. Approximately 10-25 mg of sample was loaded into a metal coated quartz pan for analysis. The sample was analysed at 25° C. with a maximum equilibration time of one hour in 10% relative humidity (RH) steps from 5 to 95% RH (adsorption cycle) and from 95 to 5% RH (desorption cycle). The movement from one step to the next occurred either after satisfying the equilibrium criterion of 0.01% weight change, or when the equilibrium criterion was not met after one hour. The percent weight change values were then calculated.

[5] = initial physical stability evaluation at various relative humidity, room temperature, ~1 week (XRPD, Karl Fischer)
Method: In another one or more examples, Karl Fischer titrations (water content analysis) for fumarate salt(s) (e.g., Fumarate Salt Form A) were carried out using a Mettler-Toledo C20 Coulometric KF titrator. The instrument was calibrated using a Hydranal water standard containing 1% water. The titrant was a Hydranal methanol solution.
For initial physical stability evaluation, Fumarate Salt Form A was stored at various relative humidity conditions and room temperature for approximately 1 week (Table 14). Subsamples of Fumarate Salt Form A (approximately 90 mg) were weighed and placed inside relative humidity (RH) jars; after 1 week the samples were analyzed by XRPD and Karl Fisher analysis; the results are summarized in Table 14.

[6] = slurry of crystalline Fumarate Salt Form A in solvents, XRPD
Source text: Regarding the use of crystalline Fumarate Salt Form A in polymorph screens, crystalline Fumarate Salt Form A as a starting material was mixed with different solvents under various conditions in attempts to generate polymorphs.

[7] = stressing at 40° C./75% relative humidity (stability study, XRPD); settings: 7 days

With `CN1CCN([C@@H]2CCCN(c3cnc(C(N)=O)c(Nc4ccc(C5CCN(CC6CCN(c7ccc(C(=O)N[C@H]8CCC(=O)NC8=O)nc7)CC6)CC5)cc4)n3)C2)C1=O` [Free Base Form B] as the molecule, how does the “Post-XRPD (150° C.)” value ([1]; listed as B) read?
Its value is “Free Base Form A”.

For `CN1CCN([C@@H]2CCCN(c3cnc(C(N)=O)c(Nc4ccc(C5CCN(CC6CCN(c7ccc(C(=O)N[C@H]8CCC(=O)NC8=O)nc7)CC6)CC5)cc4)n3)C2)C1=O` [Free Base Form C], which “Post-XRPD (150° C.)” value ([1]; listed as C) is on record?
Its value is “Free Base Form C”.

Which results are given for `CN1CCN([C@@H]2CCCN(c3cnc(C(N)=O)c(Nc4ccc(C5CCN(CC6CCN(c7ccc(C(=O)N[C@H]8CCC(=O)NC8=O)nc7)CC6)CC5)cc4)n3)C2)C1=O.O=C(O)/C=C/C(=O)O` [Fumarate Salt Form A]?
solubility ([2]; acetonitrile/H2O (45/55), aw 0.9, solubility without temperature): >10000 µg/mL; solubility ([2]; aqueous with cosolvent or surfactant or cyclodextrin, thermodynamic from solid, 1,4-dioxane/H2O (60/40), aw 1.0, solubility without temperature, read-out: Solubility): 10000 µg/mL; solubility ([2]; aqueous with cosolvent or surfactant or cyclodextrin, thermodynamic from solid, 1,4-dioxane/H2O (95/5), aw 0.4, solubility without temperature, read-out: Solubility): 1000 µg/mL; solubility ([2]; aqueous with cosolvent or surfactant or cyclodextrin, thermodynamic from solid, 2-propanol/H2O (80/20), aw 0.9, at 45° C., read-out: Solubility): > 1000 µg/mL; solubility ([2]; aqueous with cosolvent or surfactant or cyclodextrin, thermodynamic from solid, 2-propanol/H2O (80/20), aw 0.9, solubility without temperature, read-out: Solubility): < 1000 µg/mL; solubility ([2]; aqueous with cosolvent or surfactant or cyclodextrin, thermodynamic from solid, acetone/H2O (70/30), aw 0.85, solubility without temperature, read-out: Solubility): 6000 µg/mL; solubility ([2]; aqueous with cosolvent or surfactant or cyclodextrin, thermodynamic from solid, acetonitrile/H2O (45/55), aw 0.9, solubility without temperature, read-out: Solubility): > 10000 µg/mL; solubility ([2]; aqueous with cosolvent or surfactant or cyclodextrin, thermodynamic from solid, ethanol/H2O (70/30), aw 0.8, solubility without temperature, read-out: Solubility): 4000 µg/mL; solubility ([2]; aqueous with cosolvent or surfactant or cyclodextrin, thermodynamic from solid, methanol/H2O (50/50), aw 0.75, solubility without temperature, read-out: Solubility): 2000 µg/mL; solubility ([2]; aqueous with cosolvent or surfactant or cyclodextrin, thermodynamic from solid, tetrahydrofuran/H2O (80/20), aw 1, solubility without temperature, read-out: Solubility): > 9000 µg/mL; solubility ([2]; organic solvent or mixture, thermodynamic from solid, 1,4-dioxane, at 60° C., read-out: Solubility): 1000 µg/mL; solubility ([2]; organic solvent or mixture, thermodynamic from solid, acetone, at 60° C., read-out: Solubility): < 1000 µg/mL; solubility ([2]; organic solvent or mixture, thermodynamic from solid, acetonitrile (ACN), at 60° C., read-out: Solubility): < 1000 µg/mL; solubility ([2]; organic solvent or mixture, thermodynamic from solid, dichloromethane (DCM), at 60° C., read-out: Solubility): < 1000 µg/mL; solubility ([2]; organic solvent or mixture, thermodynamic from solid, dimethylformamide (DMF), at RT, read-out: Solubility): > 50000 µg/mL; solubility ([2]; organic solvent or mixture, thermodynamic from solid, ethanol (EtOH), at 60° C., read-out: Solubility): < 1000 µg/mL; solubility ([2]; organic solvent or mixture, thermodynamic from solid, ethyl formate, at 60° C., read-out: Solubility): < 1000 µg/mL; solubility ([2]; organic solvent or mixture, thermodynamic from solid, methanol (MeOH), at RT, read-out: Solubility): 1000 µg/mL; solubility ([2]; organic solvent or mixture, thermodynamic from solid, methyl ethyl ketone (MEK), at 60° C., read-out: Solubility): < 1000 µg/mL; solubility ([2]; organic solvent or mixture, thermodynamic from solid, tetrahydrofuran (THF), at 60° C., read-out: Solubility): < 1000 µg/mL; solubility in aqueous solvents with high water activities (qualitative) ([2]; polymorph screening by salt formation in situ): soluble; solubility ([2]; thermodynamic from solid, water, at 60° C., read-out: Solubility): < 1000 µg/mL; solubility [3]: < 300 µg/mL; DVS: water uptake in the range 40-75% RH [4]: approximately 0.5%; DVS: weight gain up to 95% RH ([4]; 25° C.): approximately 4%; DVS: hygroscopicity ([4]; 25° C., 5 to 95% RH): Moderately hygroscopic; Post-DVS XRPD ([4]; material after sorption/desorption cycle): Unchanged; also recorded: consistent with Fumarate Salt Form A exhibiting some peak shifting at higher angles; also recorded: Form A, high angle peak shifting; DVS: water absorbed over each of the RH ranges 5 to 35%; 35 to 85%; 85 to 95% RH ([4]; one third of the total uptake per range): Approximately 1%; DVS: loss from 95 to 5% RH ([4]; ~800-mg scale lot): 3% loss from 95 to 5% RH; DVS: loss upon drying at 5% RH ([4]; ~800-mg scale lot): 0% loss upon drying at 5% RH; KF-Oven % Water, Av ([5]; RT, 20% RH): 1.23%; KF-Oven % Water, single determinations ([5]; RT, 20% RH): 1.22% and 1.24%; KF-Oven water ([5]; RT, 20% RH): 0.7 mol/mol; XRPD Result ([5]; RT, 20% RH): Form A; KF-Oven % Water, Av ([5]; RT, 39% RH): 1.59%; KF-Oven % Water, single determinations ([5]; RT, 39% RH): 1.67% and 1.50%; KF-Oven water ([5]; RT, 39% RH): 0.9 mol/mol; XRPD Result ([5]; RT, 39% RH): Form A; KF-Oven % Water, Av ([5]; RT, 58% RH): 1.58%; KF-Oven % Water, single determinations ([5]; RT, 58% RH): 1.53% and 1.63%; KF-Oven water ([5]; RT, 58% RH): 0.9 mol/mol; XRPD Result ([5]; RT, 58% RH): Form A; KF-Oven % Water, Av ([5]; RT, 75% RH): 1.73%; KF-Oven % Water, single determinations ([5]; RT, 75% RH): 1.82% and 1.63%; KF-Oven water ([5]; RT, 75% RH): 0.9 mol/mol; XRPD Result ([5]; RT, 75% RH): Form A; KF-Oven % Water, Av ([5]; RT, 97% RH): 3.86%; KF-Oven % Water, single determinations ([5]; RT, 97% RH): 3.77% and 3.94%; KF-Oven water ([5]; RT, 97% RH): ~2.1 mol/mol; XRPD Result ([5]; RT, 97% RH): Form A; KF-Oven % Water, Av ([5]; RT, ~0% RH): 1.08%; KF-Oven % Water, single determinations ([5]; RT, ~0% RH): 1.14% and 1.01%; KF-Oven water ([5]; RT, ~0% RH): 0.6 mol/mol; KF-Oven water (moles) ([5]; RT, ~0% RH): approximately 0.6 moles; XRPD Result ([5]; RT, ~0% RH): Form A; water content in the relative humidity range 40-75% RH (Karl Fisher) ([5]; room temperature): approximately 0.9 moles; changes by XRPD after storage at various relative humidity conditions ([5]; room temperature, 0 to 97% RH): no changes were observed; stability upon slurry in aqueous binary mixtures with high water activities (XRPD) ([6]; 50° C. for 1 week): appeared to be stable; result of slurries in non-aqueous and some low water activity solvents (XRPD) ([6]; e.g., dioxane/water 95:5, aw 0.4): disordered/low crystalline materials

With `CN1CCN([C@@H]2CCCN(c3cnc(C(N)=O)c(Nc4ccc(C5CCN(CC6CCN(c7ccc(C(=O)N[C@H]8CCC(=O)NC8=O)nc7)CC6)CC5)cc4)n3)C2)C1=O` [Free Base Form A] as the molecule, how does the “Post-XRPD (100° C.)” value ([1]; listed as A) read?
The value was “Free Base Form A”.

With `CN1CCN([C@@H]2CCCN(c3cnc(C(N)=O)c(Nc4ccc(C5CCN(CC6CCN(c7ccc(C(=O)N[C@H]8CCC(=O)NC8=O)nc7)CC6)CC5)cc4)n3)C2)C1=O` [Free Base Form J] as the molecule, how does the “physical stability to stressing at 40° C./75% relative humidity (RH)” value [7] read?
The value was “physically stable”.

Which “Post-XRPD (100° C.)” value ([1]; listed as D) does the source give for `CN1CCN([C@@H]2CCCN(c3cnc(C(N)=O)c(Nc4ccc(C5CCN(CC6CCN(c7ccc(C(=O)N[C@H]8CCC(=O)NC8=O)nc7)CC6)CC5)cc4)n3)C2)C1=O` [Free Base Form D] here?
The value was “Free Base Form D”.
